Consider three molecules from publication PMC9962302, “The Mechanism of Metal-Containing Formate Dehydrogenases Revisited: The Formation of Bicarbonate as Product Intermediate Provides Evidence for an Oxygen Atom Transfer Mechanism” (Molecules, 2023).

Data set [1] deals with T1, R. capsulatus FDH (RcFDH), metal-containing formate dehydrogenase (Rhodobacter capsulatus, UniProt D5AQH0).
T1 construct: gene fdhA
Briefly: steady-state inhibition kinetics of formate oxidation, benzyl viologen as electron acceptor, […] nm. The data set is classed as biochemical.

Data set [2] has as its target T1, R. capsulatus FDH (RcFDH), metal-containing formate dehydrogenase. Description: inhibition of the back reaction (CO2 reduction) at […] CS2, […] nm. The class given is biochemical.
Substrate in data set [3]: O=CO
Description: purified protein. The data set is classed as biochemical, Rhodobacter capsulatus. The conditions noted are these: bis-MGD molybdenum cofactor, [4Fe-4S] cluster; NAD+ active site, molybdenum centre.

Substrate in data set [4]: O=CS
Briefly: purified protein. The class given is biochemical, Rhodobacter capsulatus. As to conditions: bis-MGD molybdenum cofactor, [4Fe-4S] cluster; NAD+.

T1 sequence (D5AQH1 1-500 partner, one chain of several): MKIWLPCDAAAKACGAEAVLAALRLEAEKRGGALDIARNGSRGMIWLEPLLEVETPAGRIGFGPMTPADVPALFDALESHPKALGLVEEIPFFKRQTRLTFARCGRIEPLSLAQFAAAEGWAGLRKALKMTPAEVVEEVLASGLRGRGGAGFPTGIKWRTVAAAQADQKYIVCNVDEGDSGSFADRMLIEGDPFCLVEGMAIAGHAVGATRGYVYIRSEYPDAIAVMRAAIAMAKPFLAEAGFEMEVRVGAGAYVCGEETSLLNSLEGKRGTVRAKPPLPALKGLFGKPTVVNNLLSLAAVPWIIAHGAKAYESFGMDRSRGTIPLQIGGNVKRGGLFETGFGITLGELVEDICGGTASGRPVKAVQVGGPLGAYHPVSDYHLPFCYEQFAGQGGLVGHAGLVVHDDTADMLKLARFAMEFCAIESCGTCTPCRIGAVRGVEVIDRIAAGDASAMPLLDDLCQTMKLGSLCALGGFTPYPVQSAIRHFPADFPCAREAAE
T1 sequence (D5AQH2 1-150 partner, one chain of several): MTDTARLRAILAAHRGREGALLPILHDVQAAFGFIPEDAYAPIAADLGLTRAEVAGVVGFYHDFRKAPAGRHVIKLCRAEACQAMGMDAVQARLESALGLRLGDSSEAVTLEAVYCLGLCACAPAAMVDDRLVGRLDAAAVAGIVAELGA
T1 sequence (D5AQG8 1-71 partner, one chain of several): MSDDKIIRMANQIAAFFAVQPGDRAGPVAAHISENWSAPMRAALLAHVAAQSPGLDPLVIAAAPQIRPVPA

The molecule `S=CS` [dithioformate] registered an inhibition constant Ki in data set [1] of 7.5 mM.

`S=C=S` [carbon disulfide]: the “inhibition of the back reaction (CO2 reduction) at 150 mM CS2, 340 nm” value in data set [2] is reported as “interfere with the active site and/or the hydrophobic channel and, therefore, inhibits the reduction in CO2 when present”.

B1: R. capsulatus FDH (RcFDH), metal-containing formate dehydrogenase (Rhodobacter capsulatus SB 1003) (protein)
chain: MKDLIIPPLDWTQDMGTPKREGAPVHLTIDGVEVTVPAGTSVLRAAAEAGISIPKLCATDNVEPVGSCRLCMVEIEGMRGTPTSCTTPVAPGMRVHTQTPQLQKLRRGVMELYISDHPLDCLTCAANGDCELQDMAGAVGLREVRYQAKDTHFARRDATGPNPRYIPKDNSNPYFSYDPAKCIVCMRCVRACEEVQGTFALTVMGRGFDARISPAAPDFLSSDCVSCGACVQACPTATLVEKSVERIGTPERKVVTTCAYCGVGCSFEAHMLGDQLVRMVPWKGGAANRGHSCVKGRFAYGYATHQDRILKPMIRDKITDPWREVNWTEALDFTATRLRALRDSHGADALGVITSSRCTNEETYLVQKLARAVFGTNNTDTCARVCHSPTGYGLKQTFGTSAGTQDFDSVEETDLALVIGANPTDGHPVFASRLRKRLRAGAKLIVVDPRRIDLLNTPHRGEAWHLQLKPGTNVAVMTAMAHVIVTEQIFDKRFIGDRCDWDEWADYAEFVANPEYAPEAVESLTGVPAGLLRQAARAYAAAPNAAIYYGLGVTEHSQGSTTVIAIANLAMMTGNIGRPGVGVNPLRGQNNVQGSCDMGSFPHEFPGYRHVSDDATRGLFERTWGVTLSSEPGLRIPNMLDAAVEGRFKALYVQGEDILQSDPDTRHVSAGLAAMDLVIVHDLFLNETANYAHVFLPGSTFLEKDGTFTNAERRINRVRRVMAPKAGFADWEVTQMLANALGAGWHYTHPSEIMAEIAATTPGFAAVTYEMLDARGSVQWPCNEKAPEGSPIMHVEGFVRGKGRFIRTAYLPTDEKTGPRFPLLLTTGRILSQYNVGAQTRRTENTVWHGEDRLEIHPTDAETRGIRDGDWVRLASRAGETTLRATVTDRVSPGVVYTTFHHPDTQANVVTTDTSDWATNCPEYKVTAVQVAASNGPSDWQQDYAAQAAAARRIEAAE
For the molecule B1, the values for the Michaelis-Menten constant (Km) in data set [3] and in data set [4] were 145 ± 25 µM and 3300 ± 240 µM, respectively.

By Ki is commonly meant the dissociation constant of the complex between target and ligand, obtained from inhibition or displacement. Higher therefore signals lower affinity. In general, Km refers to the concentration of substrate that gives half-maximal velocity.
